≈ marks a conversion by molar mass, not a printed value.
Experiments:
Assay type in all cases: functional
[1] = test system: Syncephalastrum racemosum; test: Antimicrobial activity against Syncephalastrum racemosum hyphae after 24 hrs by AFST-EUCAST method
[2] = test system: Cunninghamella bertholletiae; test: Antimicrobial activity against Cunninghamella bertholletiae hyphae after 24 hrs by AFST-EUCAST method
[3] = test system: Lichtheimia corymbifera; test: Antimicrobial activity against Absidia corymbifera conidia after 24 hrs by AFST-EUCAST method
[4] = test system: Rhizopus; test: Antimicrobial activity against Rhizopus spp. conidia after 24 hrs by AFST-EUCAST method
[5] = test system: Lichtheimia corymbifera; test: Antimicrobial activity against Absidia corymbifera hyphae after 24 hrs by AFST-EUCAST method
[6] = test system: Rhizopus; test: Antimicrobial activity against Rhizopus spp. hyphae after 24 hrs by AFST-EUCAST method
[7] = test system: Cunninghamella bertholletiae; test: Antimicrobial activity against Cunninghamella bertholletiae conidia after 24 hrs by AFST-EUCAST method
[8] = test system: Mucor; test: Antimicrobial activity against Mucor spp. hyphae after 24 hrs by AFST-EUCAST method
[9] = test system: Rhizomucor; test: Antimicrobial activity against Rhizomucor spp. hyphae after 24 hrs by AFST-EUCAST method
[10] = test system: Syncephalastrum racemosum; test: Antimicrobial activity against Syncephalastrum racemosum conidia after 24 hrs by AFST-EUCAST method
[11] = test system: Rhizomucor; test: Antimicrobial activity against Rhizomucor spp. conidia after 24 hrs by AFST-EUCAST method
[12] = test system: Mucor; test: Antimicrobial activity against Mucor spp. conidia after 24 hrs by AFST-EUCAST method
[13] = test system: Lichtheimia corymbifera; test: Antimicrobial activity against Absidia corymbifera conidia after 24 hrs by XTT method in presence of amphotericin B
[14] = test system: Syncephalastrum racemosum; test: Antimicrobial activity against Syncephalastrum racemosum conidia after 24 hrs by XTT method in presence of amphotericin B
[15] = test system: Rhizomucor; test: Antimicrobial activity against Rhizomucor spp. conidia after 24 hrs by XTT method in presence of amphotericin B
[16] = test system: Syncephalastrum racemosum; test: Antimicrobial activity against Syncephalastrum racemosum hyphae after 24 hrs by XTT method in presence of amphotericin B
[17] = test system: Lichtheimia corymbifera; test: Antimicrobial activity against Absidia corymbifera hyphae after 24 hrs by XTT method in presence of amphotericin B
[18] = test system: Rhizopus arrhizus; test: Antimicrobial activity against Rhizopus oryzae hyphae after 24 hrs by XTT method in presence of amphotericin B
[19] = test system: Cunninghamella bertholletiae; test: Antimicrobial activity against Cunninghamella bertholletiae hyphae after 24 hrs by XTT method in presence of amphotericin B
[20] = test system: Mucor; test: Antimicrobial activity against Mucor spp. hyphae after 24 hrs by XTT method in presence of amphotericin B
[21] = test system: Rhizopus arrhizus; test: Antimicrobial activity against Rhizopus oryzae conidia after 24 hrs by XTT method in presence of amphotericin B
[22] = Antimicrobial activity against Rhizopus microsporus conidia after 24 hrs by XTT method in presence of amphotericin B
[23] = test system: Mucor; test: Antimicrobial activity against Mucor spp. conidia after 24 hrs by XTT method in presence of amphotericin B
[24] = Antimicrobial activity against Rhizopus microsporus hyphae after 24 hrs by XTT method in presence of amphotericin B
[25] = test system: Rhizomucor; test: Antimicrobial activity against Rhizomucor spp. hyphae after 24 hrs by XTT method in presence of amphotericin B
[26] = test system: Cunninghamella bertholletiae; test: Antimicrobial activity against Cunninghamella bertholletiae conidia after 24 hrs by XTT method in presence of amphotericin B

| Compound | MIC [1] | MIC [2] | MIC [3] | MIC [4] | MIC [5] | MIC [6] | MIC [7] | MIC [8] | MIC [9] | MIC [10] | MIC [11] | MIC [12] | further results |
| --- | --- | --- | --- | --- | --- | --- | --- | --- | --- | --- | --- | --- | --- |
| C[C@@H]1[C@H](O)[C@@H](C)/C=C/C=C/C=C/C=C/C=C/C=C/C=C/[C@H](O[C@@H]2O[C@H](C)[C@@H](O)[C@H](N)[C@@H]2O)C[C@@H]2O[C@](O)(C[C@@H](O)C[C@@H](O)[C@H](O)CC[C@@H](O)C[C@@H](O)CC(=O)O[C@H]1C)C[C@H](O)[C@H]2C(=O)O [AMPHOTERICIN B] | 1 µg/mL (≈ 1.08 µM) | 1 µg/mL (≈ 1.08 µM) | 0.5 µg/mL (≈ 0.541 µM) | 0.5 µg/mL (≈ 0.541 µM) | 1 µg/mL (≈ 1.08 µM) | 1 µg/mL (≈ 1.08 µM) | 0.5 µg/mL (≈ 0.541 µM) | 1 µg/mL (≈ 1.08 µM) | 1 µg/mL (≈ 1.08 µM) | 0.5 µg/mL (≈ 0.541 µM) | 0.5 µg/mL (≈ 0.541 µM) | 0.5 µg/mL (≈ 0.541 µM) | – |
| CC[C@@H]([C@H](C)O)n1ncn(-c2ccc(N3CCN(c4ccc(OC[C@@H]5CO[C@@](Cn6cncn6)(c6ccc(F)cc6F)C5)cc4)CC3)cc2)c1=O [POSACONAZOLE] | 1 µg/mL (≈ 1.43 µM) | 1 µg/mL (≈ 1.43 µM) | 0.25 µg/mL (≈ 0.357 µM) | 0.25 µg/mL (≈ 0.357 µM) | 1 µg/mL (≈ 1.43 µM) | 1 µg/mL (≈ 1.43 µM) | 0.25 µg/mL (≈ 0.357 µM) | 1 µg/mL (≈ 1.43 µM) | 1 µg/mL (≈ 1.43 µM) | 0.25 µg/mL (≈ 0.357 µM) | 0.25 µg/mL (≈ 0.357 µM) | 0.25 µg/mL (≈ 0.357 µM) | fractional inhibitory concentration index (FICI) [13]: 0.75; fractional inhibitory concentration index (FICI) [14]: 1; fractional inhibitory concentration index (FICI) [15]: 0.5; fractional inhibitory concentration index (FICI) [16]: 0.6; fractional inhibitory concentration index (FICI) [17]: 0.37; fractional inhibitory concentration index (FICI) [18]: 1; fractional inhibitory concentration index (FICI) [19]: 0.5; fractional inhibitory concentration index (FICI) [20]: 0.5; fractional inhibitory concentration index (FICI) [21]: 0.75; fractional inhibitory concentration index (FICI) [22]: 0.37; fractional inhibitory concentration index (FICI) [23]: 1.25; fractional inhibitory concentration index (FICI) [24]: 0.37; fractional inhibitory concentration index (FICI) [25]: 0.75; fractional inhibitory concentration index (FICI) [26]: 1.1 |

— ChEMBL document CHEMBL1275450, “Posaconazole enhances the activity of amphotericin B against hyphae of zygomycetes in vitro” (2008)
